In paper PMC4601051, “Discovery of Indoline-2-carboxamide Derivatives as a New Class of Brain-Penetrant Inhibitors of Trypanosoma brucei” (Journal of Medicinal Chemistry, 2015):

Legend:
[1] = Plasma protein binding by equilibrium dialysis, mouse; type: in vitro ADME; conditions: read-out: plasma protein binding, Fu (fraction unbound)
Procedure: The software package StarDrop by Optibrium was used to calculate physicochemical parameters including log P, molecular weight, and polar surface area (PSA). The aqueous kinetic solubility of the compounds was measured using laser nephelometry as previously described.[40] The plasma protein binding of the compounds was determined by the equilibrium dialysis method.[12]

[2] = test system: panel of receptors, including dopamine, serotonin, histamine, and muscarinic receptors; experiment: NIMH Psychoactive Drug Screening Program (PDSP) receptor panel; type: binding; conditions: significant inhibition is considered > 50%
Description: However, the observed toxicity prevents further progression of the compounds. To try and identify a possible driver for toxicity, that may then offer an opportunity to design out this unwanted effect, the key compounds were screened against a panel of receptors at the NIMH Psychoactive Drug Screening Program (PDSP).[36],[37] No significant activity against a large panel of receptors, including dopamine, serotonin, histamine, and muscarinic receptors (see Supporting Information) was observed.
S2: Details of receptors screened at the NIMH Psychoactive Drug Screening Program […]
receptors screened. Significant inhibition is considered > 50%. In cases where negative inhibition (-) is seen, this represents a stimulation of binding. The receptors screened were 5- […]
HT7, Alpha1A, Alpha1B, Alpha1D, Alpha2A, Alpha2B, Alpha2C, Beta1, Beta2, Beta3, BZP rat Brain site, D1, D2, D3, D4, D5, DAT, DOR, GABBA, H1, H2, H3, KOR, M1, M2, M3, M4, M5, MOR, NET, PBR, SERT, Sigma1 and Sigma2

CNC(=O)[C@H]1Cc2ccccc2N1C(=O)Cc1ccc(F)cc1 [Compound 47, (R)-1-(2-(4-Fluorophenyl)acetyl)-N-methylindoline-2-carboxamide]
fraction unbound [1]: 0.59 | inhibition against receptors screened [2]: did not show significant inhibitor
